Results taken from patent publication US11472844B2, “Peptidomimetics, method of synthesis and uses thereof” (priority 2017, dated 2022).
No end group written: not given here.

Key:
[1] = system: human neutrophil granules; test: Fluorescent labelling of fixed purified human neutrophils; format: cell-based; details: 1 μg/mL
Description: Fixation and staining procedures. For microscopy studies, purified or cultured cells and polymerized lactoferrin were resuspended onto 24-well plates containing 12 mm coverslips in RMPI 1640+10 mM Hepes (when cultured in the autologous plasma) and centrifuged at 300×g for 10 min. Culture media were removed and cells were fixed in 4% Paraformaldehyde (PFA) for two hours. Fixed cells were washed three times in PBS+0.1% saponin (Sigma-Aldrich), prior immunolabeling with primary antibodies in the same buffer for 1 hour (Triton 0.1% can alternatively be used for cell permeabilization). After three additional washes in PBS+0.1% saponin, secondary antibodies and fluorescent markers were incubated for one hour. Coverslips were washed three time in PBS+0.1% saponin, three times in PBS, and three times in deionized H2O and mounted with prolong gold^tm mounting media.
Antibodies, fluorescent markers. For immunofluorescence assay, lactoferrin was detected with a mouse anti-lactoferrin primary monoclonal antibody (Hycult biotech, clone 265-1K1, 1:50 dilution) and an anti-mouse-FITC conjugated secondary antibody (1:1000). Nuclei were detected with DAPI (Life Technologies), Lyophilized MUB40 peptides (MUB40#1 (SEQ ID NO: 3)-Cy5, MUB40#2 (SEQ ID NO: 4)-Cy5, MUB40#3 (SEQ ID NO: 5)-Cy5, MUB40#4 (SEQ ID NO: 6)-Cy5, MUB40#1 (SEQ ID NO: 3)-Dylight, RI-MUB40 (SEQ ID NO: 2)-Cy5, and RI-MUB40 (SEQ ID NO: 2)-Biotin) were solubilized in a phosphate buffer pH8 at a 1 mg/mL concentration and used at a 1:1000 dilution. For PBMC staining CD19-APC (B lymphocytes), CD3-APC (T lymphocytes), and CD14-PercP (monocytes, macrophages) (BD Bioscience) were used at a 1:1000 dilution together with Dapi (1:1000) and MUB40-Cy5 (1 mg/mL). Actin was stained with Phalloidin-Rhodamine red X (RRX) (Jackson Immunoresearch Antibodies) used at a 1:1000 final dilution.
Polymorphonuclear neutrophils purification. Human polymorphonuclear neutrophils were purified as described previously (Monceaux et al. 2016). Briefly, plasma was removed by centrifugation (450×g, 15 min); blood cells were resuspended in 0.9% NaCl solution supplemented with 0.72% Dextran. After red blood cells sedimentation, white blood cells were pelleted and further separated on a two layer Percoll (GE Healthcare) (51%−42%) by centrifugation (at 240×g, 20 min). PBMC (top layer) were isolated from polymorphonuclear neutrophils (bottom layer). Red blood cells were removed from the latter fraction using CD235a (glycophorin) microbeads (negative selection) (Miltenyi Biotec). PBMCs and polymorphonuclear neutrophils were resuspended in the autologous plasma. Guinea pig and mouse polymorphonuclear neutrophils were purified with the same procedure.
Confocal microscopy. […]

[2] = system: neutrophils recruited to guinea pig colonic mucosa infected with Shigella flexneri; test: Guinea pig model of shigellosis, staining of fixed colon sections; details: guinea pig colon, Shigella flexneri, 1 μg/ml
Description: Guinea pig. The experimental protocol was approved by the french Ethic Committee Paris (n° 20140069, 2014). Young guinea pigs (Hartley, <150 g, Charles River) were anaesthetized and infected intrarectally with 10^9 CFU exponentially grown Shigella flexneri 5a (M90T) pGFP as previously described (Shim et al. 2007) (Monceaux et al. 2016). Infection occurred during 8 hours before animals were sacrificed and infected colons collected and fixed in 4% Paraformaldehyde (PFA) for two hours. For immunohistochemical staining, infected guinea pig colon samples were washed in PBS and incubated at 4° C. in PBS containing 16% sucrose for 4 hours, followed by incubation in PBS with 30% sucrose overnight. Samples were frozen in OCT (VWR 361603E) on dry ice. Frozen blocks were stored at −80 until sectioning. 10 to 30 μm sections were obtained using a cryostat CM-3050S (Leica). Tissue slices were labeled in PBS+0.1% saponin (Sigma-Aldrich) with MUB40-Cy5 or MUB40-Dylight (1 μg/ml) to localize recruited neutrophils. Slides were washed three time in PBS+0.1% saponin, three times in PBS, and three times in deionized H2O and mounted with prolong gold^tm mounting media.

[3] = system: neutrophils recruited to rabbit ileum infected with Shigella flexneri; test: Rabbit ligated loop model of shigellosis, staining of fixed ileum sections; details: 1 μg/mL
Description: Rabbit. The experimental protocol was approved by the french Ethic Committee Paris 1 (number 20070004, December 9th 2007). New Zealand White rabbits weighting 2.5-3 kg (Charles River) were used for experimental infections. For each animal, up to 12 intestinal ligated loops, each 5 cm in length, were prepared as described previously (Jones et al. 2007; Martinez et al. 1988; West et al. 2005) and infected with 10^5 CFU S. flexneri pGFP per loop. After 16 h, animals were sacrificed and collected tissue were fixed in 4% Paraformaldehyde (PFA) for two hours. For immunohistochemical staining, infected rabbit ileum samples were washed in PBS, incubated at 4° C. PBS containing 12% sucrose for 90 min, then in PBS with 18% sucrose overnight, and frozen in OCT (Sakura) on dry ice. 7 μm sections were obtained using a cryostat CM-3050 (Leica). Fluorescent staining was performed in PBS+0.1% saponin using Phalloidin-RRX (1:1000 dilution) to stain Actin, MUB40-Cy5 (1 μg/mL) and a mouse anti-lactoferrin primary monoclonal antibody (Hycult biotech, clone 265-1K1, 1:50 dilution) and an anti-mouse-FITC conjugated secondary antibody (1:1000) to stain infiltrated neutrophils. Slides were washed three time in PBS+0.1% saponin, three times in PBS, and three times in deionized H2O and mounted with prolong gold^tm mounting media.

MUB40-Dylight405: MUB40#1 (SEQ ID NO: 3) labeled with Dylight 405 (CTAEGIKKFEGDGYELFKDNFPAGEKFDNDDTNDQFYTVIF; also: Dylight 405 label (site not given here))
specifically labeled: labelling of human neutrophil granules [1] | labelling of recruited neutrophils [2] | labelling of recruited neutrophils [3]
